Assays:
Assay in all cases: KINOMEscan
Conditions in all cases: read-out: Percent Control
[1] = target: CAMKK1 (Homo sapiens, UniProt Q8N5S9)
Protocol: (§1) The kinase engagement assay (KINOMEscan®) was performed by DiscoverX assessing binding abilities toward a set of kinases.

[2] = target: ABL1(H396P)-phosphorylated (Homo sapiens, UniProt P00519, H396P)
Protocol: as §1

[3] = target: ERK8 (Homo sapiens, UniProt Q8TD08)
Protocol: as §1

[4] = target: RET(V804L) (Homo sapiens, UniProt P07949, V804L)
Protocol: as §1

[5] = target: VPS34 (Homo sapiens, UniProt Q8NEB9)
Protocol: as §1

[6] = target: PDGFRB (Homo sapiens, UniProt P09619)
Protocol: as §1

[7] = target: NEK4 (Homo sapiens, UniProt P51957)
Protocol: as §1

[8] = target: MST4 (Homo sapiens, UniProt Q9P289)
Protocol: as §1

[9] = target: MEK1 (Homo sapiens, UniProt Q02750)
Protocol: as §1

[10] = target: ZAK (Homo sapiens, UniProt Q9NYL2)
Protocol: as §1

[11] = target: WNK4 (Homo sapiens, UniProt Q96J92)
Protocol: as §1

[12] = target: DMPK (Homo sapiens, UniProt Q09013)
Protocol: as §1

[13] = target: CSNK2A1 (Homo sapiens, UniProt P68400)
Protocol: as §1

[14] = target: ASK1 (Homo sapiens, UniProt Q99683)
Protocol: as §1

[15] = target: EPHB4 (Homo sapiens, UniProt P54760)
Protocol: as §1

[16] = target: NEK5 (Homo sapiens, UniProt Q6P3R8)
Protocol: as §1

[17] = target: CAMK2A (Homo sapiens, UniProt Q9UQM7)
Protocol: as §1

[18] = target: ABL1(F317I)-nonphosphorylated (Homo sapiens, UniProt P00519, F317I)
Protocol: as §1

[19] = target: PIP5K2C (Homo sapiens, UniProt Q8TBX8)
Protocol: as §1

[20] = target: NEK7 (Homo sapiens, UniProt Q8TDX7)
Protocol: as §1

[21] = target: RSK4(Kin.Dom.1-N-terminal) (Homo sapiens, UniProt Q9UK32)
Protocol: as §1

[22] = target: LRRK2 (Homo sapiens, UniProt Q5S007)
Protocol: as §1

[23] = target: SNRK (Homo sapiens, UniProt Q9NRH2)
Protocol: as §1

[24] = target: CDK11 (Homo sapiens, UniProt Q9BWU1)
Protocol: as §1

[25] = target: p38-delta (Homo sapiens, UniProt O15264)
Protocol: as §1

[26] = target: ERBB2 (Homo sapiens, UniProt P04626)
Protocol: as §1

[27] = target: PRKCD (Homo sapiens, UniProt Q05655)
Protocol: as §1

[28] = target: EPHA4 (Homo sapiens, UniProt P54764)
Protocol: as §1

[29] = target: MUSK (Homo sapiens, UniProt O15146)
Protocol: as §1

[30] = target: DYRK1A (Homo sapiens, UniProt Q13627)
Protocol: as §1

[31] = target: JAK3(JH1domain-catalytic) (Homo sapiens, UniProt P52333)
Protocol: as §1

[32] = target: CDC2L2 (Homo sapiens, UniProt Q9UQ88)
Protocol: as §1

[33] = target: SRMS (Homo sapiens, UniProt Q9H3Y6)
Protocol: as §1

Chain of MUSK (O15146 24-869): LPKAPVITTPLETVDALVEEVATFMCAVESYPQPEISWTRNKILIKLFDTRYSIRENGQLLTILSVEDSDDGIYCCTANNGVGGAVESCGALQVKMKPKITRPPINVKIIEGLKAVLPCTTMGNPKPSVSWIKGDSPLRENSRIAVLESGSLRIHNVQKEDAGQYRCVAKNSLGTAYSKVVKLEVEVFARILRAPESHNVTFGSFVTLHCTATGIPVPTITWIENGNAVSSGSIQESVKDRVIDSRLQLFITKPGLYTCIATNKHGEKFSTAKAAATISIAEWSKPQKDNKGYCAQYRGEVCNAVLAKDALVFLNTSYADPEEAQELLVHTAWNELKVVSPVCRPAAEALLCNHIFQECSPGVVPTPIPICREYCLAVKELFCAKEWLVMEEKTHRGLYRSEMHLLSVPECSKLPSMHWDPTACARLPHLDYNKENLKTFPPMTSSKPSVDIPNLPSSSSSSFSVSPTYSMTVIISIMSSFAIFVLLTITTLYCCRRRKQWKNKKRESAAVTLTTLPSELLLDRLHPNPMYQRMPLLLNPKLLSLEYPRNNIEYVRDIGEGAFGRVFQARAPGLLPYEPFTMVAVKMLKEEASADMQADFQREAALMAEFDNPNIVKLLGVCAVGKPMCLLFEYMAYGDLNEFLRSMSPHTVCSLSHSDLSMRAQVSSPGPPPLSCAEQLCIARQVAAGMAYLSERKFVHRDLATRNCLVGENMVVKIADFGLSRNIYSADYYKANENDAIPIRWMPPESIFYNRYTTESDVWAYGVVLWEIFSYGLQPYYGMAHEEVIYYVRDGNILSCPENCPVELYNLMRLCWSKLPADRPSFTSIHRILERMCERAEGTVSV
Chain of CSNK2A1 (P68400 whole entry): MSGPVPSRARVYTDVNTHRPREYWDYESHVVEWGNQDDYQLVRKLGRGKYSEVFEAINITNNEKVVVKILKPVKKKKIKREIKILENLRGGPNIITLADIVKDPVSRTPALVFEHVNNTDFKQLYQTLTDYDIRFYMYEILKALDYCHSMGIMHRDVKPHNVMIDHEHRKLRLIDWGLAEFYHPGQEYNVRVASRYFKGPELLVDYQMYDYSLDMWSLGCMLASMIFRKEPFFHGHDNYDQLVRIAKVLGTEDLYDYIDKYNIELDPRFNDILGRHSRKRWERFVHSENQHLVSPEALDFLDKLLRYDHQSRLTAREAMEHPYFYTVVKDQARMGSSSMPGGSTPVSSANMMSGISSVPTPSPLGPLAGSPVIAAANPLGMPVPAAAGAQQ
Chain of PDGFRB (P09619 33-1106): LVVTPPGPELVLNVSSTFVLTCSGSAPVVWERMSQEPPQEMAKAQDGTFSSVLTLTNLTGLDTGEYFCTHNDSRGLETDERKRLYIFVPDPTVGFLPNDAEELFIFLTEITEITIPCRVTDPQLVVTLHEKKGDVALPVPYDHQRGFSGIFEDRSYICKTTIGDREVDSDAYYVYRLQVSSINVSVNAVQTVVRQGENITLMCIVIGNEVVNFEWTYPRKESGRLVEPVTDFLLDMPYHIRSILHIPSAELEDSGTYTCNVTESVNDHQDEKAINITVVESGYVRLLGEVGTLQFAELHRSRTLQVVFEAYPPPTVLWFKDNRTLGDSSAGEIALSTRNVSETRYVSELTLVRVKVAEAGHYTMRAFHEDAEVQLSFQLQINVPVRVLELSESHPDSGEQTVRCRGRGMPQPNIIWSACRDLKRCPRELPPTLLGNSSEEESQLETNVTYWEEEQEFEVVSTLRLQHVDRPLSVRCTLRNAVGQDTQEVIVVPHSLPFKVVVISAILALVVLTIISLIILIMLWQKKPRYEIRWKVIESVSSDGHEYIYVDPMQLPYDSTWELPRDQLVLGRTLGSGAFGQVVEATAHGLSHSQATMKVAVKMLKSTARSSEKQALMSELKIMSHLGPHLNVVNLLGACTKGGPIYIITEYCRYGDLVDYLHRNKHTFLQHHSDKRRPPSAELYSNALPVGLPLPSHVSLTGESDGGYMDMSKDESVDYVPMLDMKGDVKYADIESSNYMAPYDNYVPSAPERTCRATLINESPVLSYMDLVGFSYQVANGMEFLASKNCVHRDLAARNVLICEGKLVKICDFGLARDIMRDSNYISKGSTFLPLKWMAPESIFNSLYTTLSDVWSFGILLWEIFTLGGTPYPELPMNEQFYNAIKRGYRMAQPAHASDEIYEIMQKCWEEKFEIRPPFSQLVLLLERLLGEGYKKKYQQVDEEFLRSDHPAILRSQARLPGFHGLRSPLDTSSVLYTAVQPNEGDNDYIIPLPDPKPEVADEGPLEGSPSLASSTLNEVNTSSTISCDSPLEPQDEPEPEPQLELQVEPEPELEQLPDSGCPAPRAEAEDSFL
Chain of ZAK (Q9NYL2 whole entry): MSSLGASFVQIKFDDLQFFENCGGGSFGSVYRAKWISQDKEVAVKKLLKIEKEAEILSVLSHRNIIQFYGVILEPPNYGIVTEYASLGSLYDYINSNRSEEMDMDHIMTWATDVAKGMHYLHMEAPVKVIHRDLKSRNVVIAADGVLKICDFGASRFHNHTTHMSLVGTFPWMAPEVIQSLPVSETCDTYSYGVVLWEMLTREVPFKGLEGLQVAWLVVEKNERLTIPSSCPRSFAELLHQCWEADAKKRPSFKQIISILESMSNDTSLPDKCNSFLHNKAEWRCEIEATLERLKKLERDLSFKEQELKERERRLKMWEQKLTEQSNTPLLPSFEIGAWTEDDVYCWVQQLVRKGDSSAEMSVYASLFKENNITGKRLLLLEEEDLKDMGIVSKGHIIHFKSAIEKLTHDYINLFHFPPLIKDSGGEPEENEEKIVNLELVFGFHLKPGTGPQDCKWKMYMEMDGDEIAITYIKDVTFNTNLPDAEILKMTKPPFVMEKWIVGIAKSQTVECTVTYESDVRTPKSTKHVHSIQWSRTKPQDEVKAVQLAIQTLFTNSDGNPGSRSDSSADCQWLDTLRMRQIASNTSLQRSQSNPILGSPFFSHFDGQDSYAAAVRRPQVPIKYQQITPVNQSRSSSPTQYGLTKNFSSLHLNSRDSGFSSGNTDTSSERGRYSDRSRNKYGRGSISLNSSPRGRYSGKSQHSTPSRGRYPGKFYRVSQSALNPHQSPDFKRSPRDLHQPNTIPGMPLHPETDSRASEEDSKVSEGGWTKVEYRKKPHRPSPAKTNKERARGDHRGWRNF
Chain of ERK8 (Q8TD08 whole entry): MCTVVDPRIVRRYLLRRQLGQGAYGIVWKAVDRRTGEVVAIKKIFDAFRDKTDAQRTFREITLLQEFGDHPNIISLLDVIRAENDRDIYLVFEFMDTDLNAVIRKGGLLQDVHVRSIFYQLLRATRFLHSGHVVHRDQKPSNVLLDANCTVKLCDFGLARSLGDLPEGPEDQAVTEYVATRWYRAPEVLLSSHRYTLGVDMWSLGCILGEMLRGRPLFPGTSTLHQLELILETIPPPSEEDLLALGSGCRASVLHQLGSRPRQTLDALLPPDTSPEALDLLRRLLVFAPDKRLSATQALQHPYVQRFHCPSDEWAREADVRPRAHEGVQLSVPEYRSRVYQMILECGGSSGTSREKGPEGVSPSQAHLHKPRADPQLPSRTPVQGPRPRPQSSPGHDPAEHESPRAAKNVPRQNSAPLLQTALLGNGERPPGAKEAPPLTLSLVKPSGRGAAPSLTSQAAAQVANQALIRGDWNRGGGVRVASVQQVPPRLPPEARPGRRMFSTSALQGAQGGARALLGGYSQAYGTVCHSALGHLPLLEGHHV
Chain of DMPK (Q09013 whole entry): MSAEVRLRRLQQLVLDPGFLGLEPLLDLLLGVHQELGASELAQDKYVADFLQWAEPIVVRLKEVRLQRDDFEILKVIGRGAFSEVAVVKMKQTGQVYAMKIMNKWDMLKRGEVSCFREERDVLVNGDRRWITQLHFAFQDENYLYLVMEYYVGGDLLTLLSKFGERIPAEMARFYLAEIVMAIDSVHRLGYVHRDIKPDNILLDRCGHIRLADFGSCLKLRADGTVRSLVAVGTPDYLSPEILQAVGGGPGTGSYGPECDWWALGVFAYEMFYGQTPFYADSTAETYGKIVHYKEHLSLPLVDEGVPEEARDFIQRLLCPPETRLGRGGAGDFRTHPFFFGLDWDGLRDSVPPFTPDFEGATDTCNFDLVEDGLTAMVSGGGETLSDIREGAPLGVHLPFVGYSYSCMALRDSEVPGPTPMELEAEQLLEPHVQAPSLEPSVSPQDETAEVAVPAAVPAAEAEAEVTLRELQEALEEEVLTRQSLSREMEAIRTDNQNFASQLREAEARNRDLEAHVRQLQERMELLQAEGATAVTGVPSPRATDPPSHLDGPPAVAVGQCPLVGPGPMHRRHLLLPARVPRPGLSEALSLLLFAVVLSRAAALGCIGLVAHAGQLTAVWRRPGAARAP
Chain of CDK11 (Q9BWU1 whole entry): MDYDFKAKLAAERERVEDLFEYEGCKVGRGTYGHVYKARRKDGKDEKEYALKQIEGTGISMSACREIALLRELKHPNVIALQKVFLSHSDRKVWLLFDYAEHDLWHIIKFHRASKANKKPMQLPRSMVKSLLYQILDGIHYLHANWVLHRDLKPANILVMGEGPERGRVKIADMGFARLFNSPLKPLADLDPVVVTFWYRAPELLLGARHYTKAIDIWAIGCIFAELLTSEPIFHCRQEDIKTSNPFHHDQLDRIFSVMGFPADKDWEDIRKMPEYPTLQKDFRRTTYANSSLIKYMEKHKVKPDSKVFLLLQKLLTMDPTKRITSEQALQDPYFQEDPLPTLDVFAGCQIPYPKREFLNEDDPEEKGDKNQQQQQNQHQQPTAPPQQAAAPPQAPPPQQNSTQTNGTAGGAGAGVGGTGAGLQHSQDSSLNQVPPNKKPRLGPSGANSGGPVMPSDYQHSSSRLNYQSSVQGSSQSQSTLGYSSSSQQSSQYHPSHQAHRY
Chain of RSK4(Kin.Dom.1-N-terminal) (Q9UK32 73-330 limits assumed): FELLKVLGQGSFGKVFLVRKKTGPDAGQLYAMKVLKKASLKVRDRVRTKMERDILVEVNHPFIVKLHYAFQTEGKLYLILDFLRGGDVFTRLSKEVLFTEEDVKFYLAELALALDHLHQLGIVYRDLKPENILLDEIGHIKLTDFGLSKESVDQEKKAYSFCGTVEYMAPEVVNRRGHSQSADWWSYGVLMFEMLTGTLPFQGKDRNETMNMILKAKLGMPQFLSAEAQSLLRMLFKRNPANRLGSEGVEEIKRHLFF

O=C1CCC(N2C(=O)c3cccc(NCCCCCCCCNC(=O)N4CC[C@H](NC5=Nc6cc(F)ccc6N(CC(F)F)c6ccc(Cl)cc65)C4)c3C2=O)C(=O)N1 (stereo partly drawn) [BJG-05-039, (3S)-3-((2-Chloro-5-(2,2-difluoroethyl)-8-fluoro-5H-dibenzo[b,e][1,4]diazepin-11-yl)amino)-N-(8-((2-(2,6-dioxopiperidin-3-yl)-1,3-dioxoisoindolin-4-yl)amino)octyl)pyrrolidine-1-carboxamide]
remaining binding at 10 µM [1]: 52% | remaining binding at 10 µM [2]: 100% | remaining binding at 10 µM [3]: 63% | remaining binding at 10 µM [4]: 99% | remaining binding at 10 µM [5]: 100% | remaining binding at 10 µM [6]: 86% | remaining binding at 10 µM [7]: 99% | remaining binding at 10 µM [8]: 86% | remaining binding at 10 µM [9]: 100% | remaining binding at 10 µM [10]: 97% | remaining binding at 10 µM [11]: 77% | remaining binding at 10 µM [12]: 52% | remaining binding at 10 µM [13]: 96% | remaining binding at 10 µM [14]: 73% | remaining binding at 10 µM [15]: 91% | remaining binding at 10 µM [16]: 65% | remaining binding at 10 µM [17]: 39% | remaining binding at 10 µM [18]: 91% | remaining binding at 10 µM [19]: 100% | remaining binding at 10 µM [20]: 79% | remaining binding at 10 µM [21]: 95% | remaining binding at 10 µM [22]: 80% | remaining binding at 10 µM [23]: 89% | remaining binding at 10 µM [24]: 85% | remaining binding at 10 µM [25]: 92% | remaining binding at 10 µM [26]: 100% | remaining binding at 10 µM [27]: 97% | remaining binding at 10 µM [28]: 82% | remaining binding at 10 µM [29]: 60% | remaining binding at 10 µM [30]: 100% | remaining binding at 10 µM [31]: 97% | remaining binding at 10 µM [32]: 84% | remaining binding at 10 µM [33]: 97%

— patent US20250312462A1, “PAK1 DEGRADERS AND METHODS OF USE THEREOF” (INSTITUTE FOR CANCER RESEARCH D/B/A THE RESEARCH INSTITUTE …, priority 2022, published 2025)
